Test results published in patent US20150056195A1, “COMPOSITIONS AND METHODS FOR INIHIBITING TUMORIGENICITY OF SENESCENT CANCER CELLS INDUCED BY CHEMOTHERAPY” (INSERM (INSTITUT NATIONAL DE LA SANTE ET DE LA RECHERCHE …, priority 2013, published 2015).

Assays:
[1] = tested on: melanoma cell lines; experiment: Cell counting and cell death; type: cell-based, human; settings: 501mel and other melanoma cells
[2] = tested on: melanoma cell lines; experiment: Western blot of MITF, ECAD, FN1, NANOG, OCT4; type: cell-based, human; settings: three melanoma cell lines exposed 48 hrs to secretome of cells rendered senescent by the drug (temozolomide 900 nM, fotemustine 40 nM)
Description: (§1) Western blots were carried out as previously described^48. Briefly, cell lysates (30 μg) were separated by SDS-PAGE, transferred on to a PVDF membrane and then exposed to the appropriate primary and HRP-linked secondary antibodies. Proteins were visualized with the ECL system (Amersham). The western blots shown are representative of at least 3 independent experiments.

[3] = tested on: STAT3; experiment: Western blot of STAT3, ERK and AKT signaling; type: cell-based, human; settings: 501mel; for AKT and ERK phosphorylation / STAT3 activation (tyr705-phosphorylation): IL6 20 ng/ml or CCL2 200 ng/ml; for STAT3 activation (tyr705-phosphorylation): time course
Description: as §1

[4] = tested on: 501mel melanoma cells; experiment: Xenograft tumor model in athymic nude mice; type: in vivo; settings: cells exposed in vitro 48 hrs or transfected, then 4x10^6 cells/mouse subcutaneously
Description: Mice were randomly divided into 3 groups of 6 mice. 501mel melanoma cells were transfected with control (siC) or STAT3 (siSTAT3) siRNA and were exposed in vitro to the secretome of senescent melanoma cells (SSMC) or to recombinant CCL2 (200 ng/ml) or IL6 (20 ng/ml) for 48 hrs, washed twice with phosphate-buffered saline and then inoculated subcutaneously (4×10^6 cells/mouse) into 6-week-old female immune-deficient Athymic Nude FOXN1^nu mice (Harlan Laboratory). The growth tumor curves were determined by measuring the tumor volume using the equation V=(L×W2)/2. Mice were killed by CO2 inhalation and tumors were taken.

[5] = tested on: 501mel melanoma cells; experiment: qRT-PCR of mesenchymal, stemness and MITF transcripts; type: cell-based, human; settings: IL6 20 ng/ml, mRNA and protein levels
Description: mRNA isolation was performed with Trizol (Invitrogen), according to standard procedure. QRT-PCR was carried out with SYBR® Green I and Multiscribe Reverse Transcriptase (Promega) and monitored by an ABI Prism 7900 Sequence Detection System (Applied Biosystems, Foster City, Calif.). Detection of SB34 gene was used to normalize the results. Primer sequences for each cDNA were designed using either Primer Express Software (Applied Biosystems) or qPrimer depot (http://primerdepot.nci.nih.gov) and are available upon request.

[6] = tested on: 501mel cells; experiment: Flow cytometry of MITF content (low-MITF population); type: cell-based, human; settings: IL6 20 ng/ml, 48 hrs; control 2
[7] = tested on: 501mel cells; experiment: CFSE labeling, number of cell divisions by FACS; type: cell-based, human; settings: IL6 20 ng/ml, 72 hrs; control 5.65
Description: For the in vitro CFSE assay, cells were labeled with 2 μmol/l of CFSE according to the manufacturer's protocol (Invitrogen), then plated and treated with the secretome of control (SCMC) or senescent melanoma cells (SSMC) or recombinant IL6 (20 ng/ml). Cells were detached and analyzed by flow cytometry using MACSQuant (Miltenyi biotech). Cells were exposed to control (Cont) or senescent secretome (SSMC). Seventy-two hours later, cells were detached in phosphate-buffered saline/EDTA 2 mM and stained with DAPI to exclude dead cells. Fluorescence was measured by using the FL1/FL2 channels of a MACSQuant. Data were analyzed with MACSQuant software (Miltenyi biotech).

## CN[C@@H]1C[C@H]2O[C@@](C)([C@@H]1OC)n1c3ccccc3c3c4c(c5c6ccccc6n2c5c31)C(=O)NC4 [staurosporine]
[1]
  cell death: positive control

## CCOP(=O)(OCC)C(C)NC(=O)N(CCCl)N=O (stereo not drawn) [fotemustine]
[2]
  E-Cadherin and MITF protein level: decrease
  expression of Fibronectin1: increased expression

## CCL2: recombinant human CCL2 from R&D Systems, used at 200 ng/ml
[3]; CCL2 200 ng/ml
  time of maximum STAT3 phosphorylation: 60 min
[3]
  AKT and ERK phosphorylation: no or very weak stimulation
  STAT3 activation (tyr705-phosphorylation): dramatic increase
[4]
  tumor formation of xenografted 501mel cells: gave rise to tumors

## IL6: recombinant human IL6 from R&D Systems, used at 20 ng/ml
[5]
  NANOG and OCT4 expression: enhanced
  amount of MITF: reduced
[6]
  low-MITF population: 7%
[7]
  percentage of cells that underwent 0/1 division: 18.3%
[3]; IL6 20 ng/ml
  time to rapid and robust STAT3 phosphorylation: ≤ 5 min
[3]
  AKT and ERK phosphorylation: no or very weak stimulation
  STAT3 activation (tyr705-phosphorylation): dramatic increase
[4]
  tumor formation of xenografted 501mel cells: gave rise to tumors
